Assay results taken from ChEMBL document CHEMBL1126661, “Oxidation chemistry of the endogenous central nervous system alkaloid salsolinol-1-carboxylic acid” (J Med Chem, 1993).

System: Mus musculus
Assay: Compound was evaluated for its lethal dose (LD50) by dissolving in 5 microL of isotonic saline and injected intracranially in mice which resulted in the death of 50% of the treated animals within 1 hour
Assay type: ADME, organism-based
Conditions: in vivo, other

SMILES | LD50 [µg]
CC1=NCCc2c1cc(O)c(O)c2O | 38.9
CC1=NCCc2cc(O)c(O)cc21 | 31.1
